Measurements taken from patent US20230398130A1, “METHODS AND COMPOSITIONS FOR DIFFERENTIATING STEM CELLS” (Massachusetts Institute of Technology, priority 2020, published 2023).
Where a name gives a salt, the structure may show the parent alone.

Key:
[1] = system: ISC-enriched organoids; assay: Primary screen, 384-well 2.5-D organoid differentiation (ENR+CD, 6 days, Target Selective Inhibitor Library, vs whole-plate median): ATP (CellTiter-Glo 3D, CTG); conditions: for Dose.FC.CTG (log 2 fold change, ATP): vs plate median; for Z.CTG / SSMD.CTG: primary screen; for Z.CTG: standard z score; for SSMD.CTG: strictly standardized mean difference
[2] = system: ISC-enriched organoids; assay: Primary screen, 384-well 2.5-D organoid differentiation (ENR+CD, 6 days): carbachol-induced lysozyme secretion (LYZ.S); format: cell-based, murine; conditions: for Dose.FC.LYZ.S (log 2 fold change, carbachol-induced lysozyme secretion): vs plate median; for Z.LYZ.S: standard z score; for Z.LYZ.S / SSMD.LYZ.S: primary screen; for SSMD.LYZ.S: strictly standardized mean difference
From the text: (§1) High-throughput screening.

[3] = system: ISC-enriched organoids; assay: Primary screen, 384-well 2.5-D organoid differentiation (ENR+CD, 6 days): basal lysozyme secretion (LYZ.NS); format: cell-based, murine; conditions: for Dose.FC.LYZ.NS (log 2 fold change, basal lysozyme secretion): vs plate median; for SSMD.LYZ.NS: strictly standardized mean difference, primary screen
From the text: as §1

[4] = 1st of the 4 dose lines of the treatment (dose not given)
[5] = 2nd of the 4 dose lines of the treatment (dose not given)
[6] = 3rd of the 4 dose lines of the treatment (dose not given)
[7] = 4th of the 4 dose lines of the treatment (dose not given)

Cc1cc(-c2ccc(CC(=O)Nc3ccc(-c4cccnc4)cc3)cc2)ccn1 [Wnt-C59 (C59)]
Z.CTG (standard z score) ([1]; dose 0.08 uM): −1.366 | Dose.FC.CTG (log 2 fold change, ATP) ([1]; dose 0.08 uM): −0.572 | Z.CTG (standard z score) ([1]; dose 0.40 uM): −1.461 | Dose.FC.CTG (log 2 fold change, ATP) ([1]; dose 0.40 uM): −0.611 | Z.CTG (standard z score) ([1]; dose 2.00 uM): −1.498 | Dose.FC.CTG (log 2 fold change, ATP) ([1]; dose 2.00 uM): −0.627 | Z.CTG (standard z score) ([1]; dose 10.00 uM): −1.465 | Dose.FC.CTG (log 2 fold change, ATP) ([1]; dose 10.00 uM): −0.613 | Dose.FC.LYZ.S (log 2 fold change, carbachol-induced lysozyme secretion) ([2]; dose 0.08 uM): −0.242 | Dose.FC.LYZ.S (log 2 fold change, carbachol-induced lysozyme secretion) ([2]; dose 0.40 uM): −0.281 | Dose.FC.LYZ.S (log 2 fold change, carbachol-induced lysozyme secretion) ([2]; dose 2.00 uM): −0.313 | Dose.FC.LYZ.S (log 2 fold change, carbachol-induced lysozyme secretion) ([2]; dose 10.00 uM): −0.301 | Z.LYZ.NS (standard z score) ([3]; dose 0.08 uM): −1.424 | Dose.FC.LYZ.NS (log 2 fold change, basal lysozyme secretion) ([3]; dose 0.08 uM): −0.163 | Z.LYZ.NS (standard z score) ([3]; dose 0.40 uM): −1.588 | Dose.FC.LYZ.NS (log 2 fold change, basal lysozyme secretion) ([3]; dose 0.40 uM): −0.182 | Z.LYZ.NS (standard z score) ([3]; dose 2.00 uM): −1.724 | Dose.FC.LYZ.NS (log 2 fold change, basal lysozyme secretion) ([3]; dose 2.00 uM): −0.198 | Z.LYZ.NS (standard z score) ([3]; dose 10.00 uM): −1.666 | Dose.FC.LYZ.NS (log 2 fold change, basal lysozyme secretion) ([3]; dose 10.00 uM): −0.191

C[C@H](NC(=O)Cc1cc(F)cc(F)c1)C(=O)N[C@@H]1C(=O)N(C)c2ccccc2-c2ccccc21 [YO-01027]
Z.CTG (standard z score) ([1]; dose 0.08 uM): 0.528 | Dose.FC.CTG (log 2 fold change, ATP) ([1]; dose 0.08 uM): 0.221 | Z.CTG (standard z score) ([1]; dose 0.40 uM): −1.135 | Dose.FC.CTG (log 2 fold change, ATP) ([1]; dose 0.40 uM): −0.475 | Z.CTG (standard z score) ([1]; dose 2.00 uM): −1.363 | Dose.FC.CTG (log 2 fold change, ATP) ([1]; dose 2.00 uM): −0.571 | Z.CTG (standard z score) ([1]; dose 10.00 uM): −2.464 | Dose.FC.CTG (log 2 fold change, ATP) ([1]; dose 10.00 uM): −1.032 | Dose.FC.LYZ.S (log 2 fold change, carbachol-induced lysozyme secretion) ([2]; dose 0.08 uM): 0.105 | Dose.FC.LYZ.S (log 2 fold change, carbachol-induced lysozyme secretion) ([2]; dose 0.40 uM): −0.058 | Dose.FC.LYZ.S (log 2 fold change, carbachol-induced lysozyme secretion) ([2]; dose 2.00 uM): −0.020 | Dose.FC.LYZ.S (log 2 fold change, carbachol-induced lysozyme secretion) ([2]; dose 10.00 uM): −0.184 | Z.LYZ.NS (standard z score) ([3]; dose 0.08 uM): 0.443 | Dose.FC.LYZ.NS (log 2 fold change, basal lysozyme secretion) ([3]; dose 0.08 uM): 0.051 | Z.LYZ.NS (standard z score) ([3]; dose 0.40 uM): 0.739 | Dose.FC.LYZ.NS (log 2 fold change, basal lysozyme secretion) ([3]; dose 0.40 uM): 0.085 | Z.LYZ.NS (standard z score) ([3]; dose 2.00 uM): −0.699 | Dose.FC.LYZ.NS (log 2 fold change, basal lysozyme secretion) ([3]; dose 2.00 uM): −0.080 | Z.LYZ.NS (standard z score) ([3]; dose 10.00 uM): −1.369 | Dose.FC.LYZ.NS (log 2 fold change, basal lysozyme secretion) ([3]; dose 10.00 uM): −0.157

Cc1cc(Nc2cc(N3CCN(C)CC3)nc(Sc3ccc(NC(=O)C4CC4)cc3)n2)n[nH]1 [VX-680 (Tozasertib, MK-0457)]
Z.CTG (standard z score) ([1]; dose 0.08 uM): −0.359 | Dose.FC.CTG (log 2 fold change, ATP) ([1]; dose 0.08 uM): −0.150 | Z.CTG (standard z score) ([1]; dose 0.40 uM): −1.425 | Dose.FC.CTG (log 2 fold change, ATP) ([1]; dose 0.40 uM): −0.596 | Z.CTG (standard z score) ([1]; dose 2.00 uM): −1.686 | Dose.FC.CTG (log 2 fold change, ATP) ([1]; dose 2.00 uM): −0.706 | Z.CTG (standard z score) ([1]; dose 10.00 uM): −2.291 | Dose.FC.CTG (log 2 fold change, ATP) ([1]; dose 10.00 uM): −0.959 | Dose.FC.LYZ.S (log 2 fold change, carbachol-induced lysozyme secretion) ([2]; dose 0.08 uM): −0.078 | Dose.FC.LYZ.S (log 2 fold change, carbachol-induced lysozyme secretion) ([2]; dose 0.40 uM): −0.245 | Dose.FC.LYZ.S (log 2 fold change, carbachol-induced lysozyme secretion) ([2]; dose 2.00 uM): −0.308 | Dose.FC.LYZ.S (log 2 fold change, carbachol-induced lysozyme secretion) ([2]; dose 10.00 uM): −0.342 | Z.LYZ.NS (standard z score) ([3]; dose 0.08 uM): −0.371 | Dose.FC.LYZ.NS (log 2 fold change, basal lysozyme secretion) ([3]; dose 0.08 uM): −0.043 | Z.LYZ.NS (standard z score) ([3]; dose 0.40 uM): −1.317 | Dose.FC.LYZ.NS (log 2 fold change, basal lysozyme secretion) ([3]; dose 0.40 uM): −0.151 | Z.LYZ.NS (standard z score) ([3]; dose 2.00 uM): −1.450 | Dose.FC.LYZ.NS (log 2 fold change, basal lysozyme secretion) ([3]; dose 2.00 uM): −0.166 | Z.LYZ.NS (standard z score) ([3]; dose 10.00 uM): −2.069 | Dose.FC.LYZ.NS (log 2 fold change, basal lysozyme secretion) ([3]; dose 10.00 uM): −0.238

CCOC(=O)[C@H](CCc1ccccc1)N[C@@H](C)C(=O)N1C(=O)N(C)C[C@H]1C(=O)O [Imidapril HCl]
Z.CTG ([1]; Dose 0.08 uM): −0.796 | Z.CTG ([1]; Dose 0.40 uM): −0.354 | Z.CTG ([1]; Dose 2.00 uM): −0.564 | Z.CTG ([1]; Dose 10.00 uM): −0.543 | SSMD.CTG [1, 4]: −1.054 | SSMD.CTG [1, 5]: −0.525 | SSMD.CTG [1, 6]: −0.548 | SSMD.CTG [1, 7]: −0.699 | Z.LYZ.S [2, 4]: −0.274 | Z.LYZ.S [2, 5]: 0.702 | Z.LYZ.S [2, 6]: −0.226 | Z.LYZ.S [2, 7]: −0.487 | SSMD.LYZ.S [2, 4]: −0.269 | SSMD.LYZ.S [2, 5]: 0.315 | SSMD.LYZ.S [2, 6]: −0.262 | SSMD.LYZ.S [2, 7]: −0.404 | SSMD.LYZ.NS [3, 4]: −0.047 | SSMD.LYZ.NS [3, 5]: 0.004 | SSMD.LYZ.NS [3, 6]: 0.101 | SSMD.LYZ.NS [3, 7]: −0.541
